Laboratory results as given in ChEMBL document CHEMBL3991601, “The target landscape of clinical kinase drugs” (Science, 2017).
Counter-ions that a name gives are not always drawn. Active and inactive are the calls of the source. Cut-off read from the data, not from the text of the source, for most assays here: actives have a measured Kd and inactives only a lower limit.

How the values were obtained:
[1] = molecular target: Eukaryotic translation initiation factor 2-alpha kinase 1 (Homo sapiens, UniProt Q9BQI3)
Eukaryotic translation initiation factor 2-alpha kinase 1, sequence (Q9BQI3 whole entry): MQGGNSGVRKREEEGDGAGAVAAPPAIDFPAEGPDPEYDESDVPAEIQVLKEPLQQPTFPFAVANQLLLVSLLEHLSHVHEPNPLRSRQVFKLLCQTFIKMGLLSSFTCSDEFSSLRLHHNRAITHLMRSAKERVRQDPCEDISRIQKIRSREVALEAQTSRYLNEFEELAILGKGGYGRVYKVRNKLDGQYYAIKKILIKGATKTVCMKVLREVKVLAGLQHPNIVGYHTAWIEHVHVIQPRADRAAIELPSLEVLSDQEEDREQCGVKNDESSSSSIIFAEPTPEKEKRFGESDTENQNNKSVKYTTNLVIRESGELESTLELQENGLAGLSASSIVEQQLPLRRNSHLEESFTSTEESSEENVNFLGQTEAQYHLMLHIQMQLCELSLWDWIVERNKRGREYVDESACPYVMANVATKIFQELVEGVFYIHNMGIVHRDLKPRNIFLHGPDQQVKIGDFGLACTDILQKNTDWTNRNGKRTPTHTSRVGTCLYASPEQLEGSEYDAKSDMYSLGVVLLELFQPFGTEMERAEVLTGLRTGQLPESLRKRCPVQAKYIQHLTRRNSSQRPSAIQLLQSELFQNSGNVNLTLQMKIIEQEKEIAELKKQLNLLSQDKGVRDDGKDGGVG

[2] = molecular target: Glycogen synthase kinase-3 beta (Homo sapiens, UniProt P49841)
Glycogen synthase kinase-3 beta, sequence (P49841 whole entry): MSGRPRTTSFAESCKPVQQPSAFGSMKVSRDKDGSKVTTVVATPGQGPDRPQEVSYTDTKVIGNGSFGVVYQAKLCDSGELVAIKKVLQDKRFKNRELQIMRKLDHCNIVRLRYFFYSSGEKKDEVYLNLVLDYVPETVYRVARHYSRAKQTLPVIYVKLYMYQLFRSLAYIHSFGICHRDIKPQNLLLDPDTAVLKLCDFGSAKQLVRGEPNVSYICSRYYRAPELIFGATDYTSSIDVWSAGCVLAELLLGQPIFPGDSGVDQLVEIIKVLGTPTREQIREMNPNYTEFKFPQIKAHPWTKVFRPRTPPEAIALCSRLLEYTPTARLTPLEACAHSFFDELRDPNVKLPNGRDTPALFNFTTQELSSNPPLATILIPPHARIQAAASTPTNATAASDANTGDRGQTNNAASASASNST

[3] = molecular target: T1, Interleukin-1 receptor-associated kinase 3 (Homo sapiens, UniProt Q9Y616)
T1 sequence (Q9Y616 whole entry): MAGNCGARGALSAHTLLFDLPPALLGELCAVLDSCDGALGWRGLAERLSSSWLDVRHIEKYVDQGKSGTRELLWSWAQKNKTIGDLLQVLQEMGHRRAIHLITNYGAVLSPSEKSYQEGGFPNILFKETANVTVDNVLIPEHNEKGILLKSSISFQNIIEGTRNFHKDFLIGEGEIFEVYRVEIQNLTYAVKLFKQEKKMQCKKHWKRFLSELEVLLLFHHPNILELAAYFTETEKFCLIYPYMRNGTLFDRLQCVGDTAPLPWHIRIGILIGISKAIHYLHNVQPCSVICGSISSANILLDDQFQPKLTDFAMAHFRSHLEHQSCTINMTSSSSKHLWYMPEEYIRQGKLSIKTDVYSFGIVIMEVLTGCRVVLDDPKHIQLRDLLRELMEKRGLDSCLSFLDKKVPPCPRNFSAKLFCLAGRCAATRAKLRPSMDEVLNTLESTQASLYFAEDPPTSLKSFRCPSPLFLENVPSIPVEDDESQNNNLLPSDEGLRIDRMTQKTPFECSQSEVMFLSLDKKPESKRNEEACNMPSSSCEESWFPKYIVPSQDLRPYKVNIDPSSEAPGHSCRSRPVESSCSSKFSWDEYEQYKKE

[4] = molecular target: Mitogen-activated protein kinase kinase kinase kinase 1 (Homo sapiens, UniProt Q92918)
Mitogen-activated protein kinase kinase kinase kinase 1, sequence (Q92918 whole entry): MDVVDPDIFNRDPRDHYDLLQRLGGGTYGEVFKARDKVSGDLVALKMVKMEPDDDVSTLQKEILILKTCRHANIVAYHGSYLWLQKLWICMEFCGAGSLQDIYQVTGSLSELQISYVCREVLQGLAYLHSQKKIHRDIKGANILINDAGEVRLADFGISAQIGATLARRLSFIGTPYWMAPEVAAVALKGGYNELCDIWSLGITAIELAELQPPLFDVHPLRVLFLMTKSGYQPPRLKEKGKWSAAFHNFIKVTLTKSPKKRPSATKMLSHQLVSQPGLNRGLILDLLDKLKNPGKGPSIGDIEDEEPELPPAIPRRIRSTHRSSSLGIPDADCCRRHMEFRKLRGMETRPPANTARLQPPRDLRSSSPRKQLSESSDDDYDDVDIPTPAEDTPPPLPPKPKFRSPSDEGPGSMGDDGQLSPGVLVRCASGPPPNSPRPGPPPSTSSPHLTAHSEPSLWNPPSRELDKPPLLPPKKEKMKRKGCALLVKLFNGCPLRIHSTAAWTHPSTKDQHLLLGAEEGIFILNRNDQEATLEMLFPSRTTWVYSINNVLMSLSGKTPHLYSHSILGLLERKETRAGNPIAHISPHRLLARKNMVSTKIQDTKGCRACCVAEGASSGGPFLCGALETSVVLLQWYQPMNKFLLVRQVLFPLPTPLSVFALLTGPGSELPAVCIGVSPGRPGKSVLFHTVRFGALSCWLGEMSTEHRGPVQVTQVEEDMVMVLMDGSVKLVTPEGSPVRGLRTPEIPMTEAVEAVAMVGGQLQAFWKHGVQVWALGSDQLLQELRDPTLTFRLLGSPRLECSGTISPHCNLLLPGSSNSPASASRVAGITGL

[5] = molecular target: T2, Bifunctional phosphoribosylaminoimidazole carboxylase/phosphoribosylaminoimidazole succinocarboxamide synthetase (Homo sapiens, UniProt P22234)
T2 sequence (P22234 whole entry): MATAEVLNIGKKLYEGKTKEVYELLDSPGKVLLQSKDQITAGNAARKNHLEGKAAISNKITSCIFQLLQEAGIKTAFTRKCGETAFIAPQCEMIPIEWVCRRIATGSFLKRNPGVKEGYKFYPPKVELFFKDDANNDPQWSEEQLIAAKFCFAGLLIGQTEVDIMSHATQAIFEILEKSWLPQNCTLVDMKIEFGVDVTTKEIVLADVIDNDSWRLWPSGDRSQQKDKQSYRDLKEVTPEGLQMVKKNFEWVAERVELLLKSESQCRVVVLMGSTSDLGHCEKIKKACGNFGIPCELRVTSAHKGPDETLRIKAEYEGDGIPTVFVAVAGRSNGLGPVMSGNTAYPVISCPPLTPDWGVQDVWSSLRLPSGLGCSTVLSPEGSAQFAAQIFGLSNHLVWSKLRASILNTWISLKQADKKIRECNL

[6] = molecular target: T3, ATP-dependent 6-phosphofructokinase, platelet type (Homo sapiens, UniProt Q01813)
T3 sequence (Q01813 whole entry): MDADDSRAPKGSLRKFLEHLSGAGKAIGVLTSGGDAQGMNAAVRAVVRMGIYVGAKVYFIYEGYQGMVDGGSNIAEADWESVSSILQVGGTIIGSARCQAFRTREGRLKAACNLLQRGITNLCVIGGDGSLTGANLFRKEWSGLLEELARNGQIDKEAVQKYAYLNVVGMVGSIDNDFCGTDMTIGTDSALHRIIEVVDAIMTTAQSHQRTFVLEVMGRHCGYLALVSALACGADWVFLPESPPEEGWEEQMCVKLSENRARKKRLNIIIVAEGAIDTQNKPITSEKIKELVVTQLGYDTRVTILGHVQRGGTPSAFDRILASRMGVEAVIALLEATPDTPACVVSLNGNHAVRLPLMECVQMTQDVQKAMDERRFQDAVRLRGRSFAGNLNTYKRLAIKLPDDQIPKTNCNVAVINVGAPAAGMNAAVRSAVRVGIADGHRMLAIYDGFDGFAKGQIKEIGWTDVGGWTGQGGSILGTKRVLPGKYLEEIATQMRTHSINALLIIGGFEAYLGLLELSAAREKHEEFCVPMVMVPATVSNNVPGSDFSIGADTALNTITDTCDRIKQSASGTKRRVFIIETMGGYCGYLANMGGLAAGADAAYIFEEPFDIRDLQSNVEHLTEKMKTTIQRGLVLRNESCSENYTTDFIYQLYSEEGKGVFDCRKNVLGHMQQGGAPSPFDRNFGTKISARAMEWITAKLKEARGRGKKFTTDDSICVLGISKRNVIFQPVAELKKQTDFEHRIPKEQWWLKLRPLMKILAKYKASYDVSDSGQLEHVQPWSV

[7] = molecular target: cAMP-dependent protein kinase catalytic subunit gamma (Homo sapiens, UniProt P22612)
cAMP-dependent protein kinase catalytic subunit gamma, sequence (P22612 whole entry): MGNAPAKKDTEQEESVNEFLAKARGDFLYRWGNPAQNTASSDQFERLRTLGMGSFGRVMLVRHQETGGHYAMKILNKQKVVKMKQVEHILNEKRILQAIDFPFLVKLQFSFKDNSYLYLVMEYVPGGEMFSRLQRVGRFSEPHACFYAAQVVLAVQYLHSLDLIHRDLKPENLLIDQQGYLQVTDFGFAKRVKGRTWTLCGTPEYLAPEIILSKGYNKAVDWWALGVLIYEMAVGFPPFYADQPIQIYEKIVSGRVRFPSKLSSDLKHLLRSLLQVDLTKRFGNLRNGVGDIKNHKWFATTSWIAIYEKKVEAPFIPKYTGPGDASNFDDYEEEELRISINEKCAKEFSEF

[8] = molecular target: T4, Serine/threonine-protein kinase TAO3 (Homo sapiens, UniProt Q9H2K8)
T4 sequence (Q9H2K8 whole entry): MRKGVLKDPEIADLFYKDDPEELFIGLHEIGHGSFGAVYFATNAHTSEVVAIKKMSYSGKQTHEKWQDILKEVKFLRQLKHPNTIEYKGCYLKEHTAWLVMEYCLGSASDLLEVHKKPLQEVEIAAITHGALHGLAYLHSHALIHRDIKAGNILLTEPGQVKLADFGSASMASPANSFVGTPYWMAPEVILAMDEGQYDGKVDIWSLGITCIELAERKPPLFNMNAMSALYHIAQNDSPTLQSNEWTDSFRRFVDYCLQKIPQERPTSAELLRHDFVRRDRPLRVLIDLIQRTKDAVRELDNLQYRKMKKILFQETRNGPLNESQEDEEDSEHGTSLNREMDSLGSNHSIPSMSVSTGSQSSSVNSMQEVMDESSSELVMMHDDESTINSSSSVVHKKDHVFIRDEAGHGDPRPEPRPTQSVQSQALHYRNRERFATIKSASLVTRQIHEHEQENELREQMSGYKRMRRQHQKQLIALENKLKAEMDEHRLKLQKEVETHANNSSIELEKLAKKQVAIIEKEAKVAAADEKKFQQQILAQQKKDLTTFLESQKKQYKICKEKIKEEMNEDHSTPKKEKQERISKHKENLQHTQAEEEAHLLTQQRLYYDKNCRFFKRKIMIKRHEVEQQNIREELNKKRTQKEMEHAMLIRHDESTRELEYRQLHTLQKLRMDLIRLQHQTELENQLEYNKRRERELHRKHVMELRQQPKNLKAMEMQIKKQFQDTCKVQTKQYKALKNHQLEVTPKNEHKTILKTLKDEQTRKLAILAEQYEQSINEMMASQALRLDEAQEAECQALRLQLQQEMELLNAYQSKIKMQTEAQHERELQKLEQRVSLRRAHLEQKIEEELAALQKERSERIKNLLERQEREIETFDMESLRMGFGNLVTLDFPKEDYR
Note: in the data inactive means no Kd found up to 30 µM.

SMILES | Kd [1] | Kd [2] | Kd [3] | Kd [4] | Kd [5] | Kd [6] | Kd [7] | Kd [8]
Cc1csc(-c2nnc(Nc3ccc(Oc4ncccc4-c4ccnc(N)n4)cc3)c3ccccc23)c1 [AMG-900] | > 30 µM (inactive) | > 30 µM (inactive) | > 30 µM (inactive) | > 30 µM (inactive) | > 30 µM (inactive) | > 30 µM (inactive) | > 30 µM (inactive) | 1.77 µM (active)
O=C(Nc1c[nH]nc1-c1nc2cc(CN3CCOCC3)ccc2[nH]1)NC1CC1 [AT-9283] | > 30 µM (inactive) | 0.007 µM (active) | > 30 µM (inactive) | 0.214 µM (active) | > 30 µM (inactive) | > 30 µM (inactive) | 0.003 µM (active) | > 30 µM (inactive)
C=CC(=O)Nc1cc2c(Nc3ccc(F)c(Cl)c3)ncnc2cc1C#CC(C)(C)N1CCN(C)CC1 [AV-412 FREE BASE] | > 30 µM (inactive) | > 30 µM (inactive) | > 30 µM (inactive) | > 30 µM (inactive) | > 30 µM (inactive) | > 30 µM (inactive) | > 30 µM (inactive) | > 30 µM (inactive)
COc1cc([C@@H]2c3cc4c(cc3[C@H](O)[C@H]3COC(=O)[C@@H]23)OCO4)cc(OC)c1OC [AXL-1717] | > 30 µM (inactive) | > 30 µM (inactive) | > 30 µM (inactive) | > 30 µM (inactive) | > 30 µM (inactive) | > 30 µM (inactive) | > 30 µM (inactive) | > 30 µM (inactive)
Cc1cc(C(=O)NOCCO)c(Nc2ccc(I)cc2F)n(C)c1=O [AZD-8330] | 1.82 µM | > 30 µM (inactive) | > 30 µM (inactive) | > 30 µM (inactive) | > 30 µM (inactive) | > 30 µM (inactive) | > 30 µM (inactive) | > 30 µM (inactive)
Cn1cnc2c(F)c(Nc3ccc(Br)cc3F)c(C(=O)NOCCO)cc21 [BINIMETINIB] | > 30 µM (inactive) | > 30 µM (inactive) | > 30 µM (inactive) | > 30 µM (inactive) | > 30 µM (inactive) | > 30 µM (inactive) | > 30 µM (inactive) | > 30 µM (inactive)
CCn1c(C(=O)N(C2CC2)C2CC2)cc2c3c(ncn3C)c(Nc3cc(C)n(C)n3)nc21 [BMS-911543] | > 30 µM (inactive) | > 30 µM (inactive) | > 30 µM (inactive) | > 30 µM (inactive) | > 30 µM (inactive) | > 30 µM (inactive) | > 30 µM (inactive) | > 30 µM (inactive)
Cc1cc(Nc2ncc(Cl)c(Nc3ccccc3S(=O)(=O)C(C)C)n2)c(OC(C)C)cc1C1CCNCC1 [CERITINIB] | > 30 µM (inactive) | > 30 µM (inactive) | > 30 µM (inactive) | > 30 µM (inactive) | > 30 µM (inactive) | > 30 µM (inactive) | > 30 µM (inactive) | > 30 µM (inactive)
COc1c(OCCCN2CCOCC2)ccc2c1N=C(NC(=O)c1cnc(N)nc1)N1CCN=C21 [COPANLISIB] | > 30 µM (inactive) | > 30 µM (inactive) | > 30 µM (inactive) | > 30 µM (inactive) | > 30 µM (inactive) | > 30 µM (inactive) | > 30 µM (inactive) | > 30 µM (inactive)
COCC(=O)NC/C=C/c1ccc2ncnc(Nc3ccc(Oc4ccc(C)nc4)c(C)c3)c2c1 [CP-724714] | > 30 µM (inactive) | > 30 µM (inactive) | > 30 µM (inactive) | > 30 µM (inactive) | > 30 µM (inactive) | > 30 µM (inactive) | > 30 µM (inactive) | > 30 µM (inactive)
CCS(=O)(=O)N1CCN(c2ccc(Nc3ncc(C(N)=O)c(NC4CC4)n3)cc2)CC1 [Cerdulatinib Hydrochloride] | 3.72 µM | > 30 µM (inactive) | > 30 µM (inactive) | > 30 µM (inactive) | > 30 µM (inactive) | > 30 µM (inactive) | > 30 µM (inactive) | 8.26 µM (active)
O=C(Nc1nc2cccc(-c3ccc(CN4CCS(=O)(=O)CC4)cc3)n2n1)C1CC1 [FILGOTINIB] | > 30 µM (inactive) | > 30 µM (inactive) | > 30 µM (inactive) | > 30 µM (inactive) | > 30 µM (inactive) | > 30 µM (inactive) | > 30 µM (inactive) | > 30 µM (inactive)
Cc1cccc(-c2nn3c(c2-c2ccnc4ccc(C(N)=O)cc24)CCC3)n1 [GALUNISERTIB] | > 30 µM (inactive) | > 30 µM (inactive) | > 30 µM (inactive) | > 30 µM (inactive) | > 30 µM (inactive) | > 30 µM (inactive) | > 30 µM (inactive) | > 30 µM (inactive)
COc1ccc(S(=O)(=O)N(C(C)=O)c2ccccc2/C=C/c2cc[n+]([O-])cc2)cc1 [HMN-214] | > 30 µM (inactive) | > 30 µM (inactive) | > 30 µM (inactive) | > 30 µM (inactive) | > 30 µM (inactive) | > 30 µM (inactive) | > 30 µM (inactive) | > 30 µM (inactive)
CNC(=O)c1cccc2cc(Oc3ccnc4cc(OCC5(N)CC5)c(OC)cc34)ccc12 [LUCITANIB] | > 30 µM (inactive) | > 30 µM (inactive) | > 30 µM (inactive) | > 30 µM (inactive) | > 30 µM (inactive) | > 30 µM (inactive) | > 30 µM (inactive) | > 30 µM (inactive)
CNC(=O)c1nn(C)c2c1C(C)(C)Cc1cnc(Nc3ccc(N4CCN(C)CC4)cc3)nc1-2 [MILCICLIB] | > 30 µM (inactive) | > 30 µM (inactive) | 0.291 µM (active) | 0.212 µM (active) | > 30 µM (inactive) | > 30 µM (inactive) | > 30 µM (inactive) | 10.6 µM (active)
